Test results taken from patent US12195452B2, “N-(4-(oxazol-5-yl)phenyl) chromane-3-carboxamide derivatives and related compounds as stimulators of the production of retinal precursor cells for the treatment of neuroretinal diseases” (ENDOGENA THERAPEUTICS, INC., priority 2018, dated 2025).

system: retinal precursor cells; assay: Sphere passaging and high-throughput drug screening: proliferation of retinal precursor cells from the ciliary epithelium, cell number after one week; format: cell-based, mammalian; conditions: control experiment (absence of a compound) = 100; cells grown for one week
Method: Kynurenic Acid (0.2 mg/mL), trypsin (1.33 mg/mL), and hyaluronidase (0.67 mg/mL) were weighed out and dissolved in high magnesium/low calcium artificial cerebral spinal fluid (aCSF) at 37° C. Fibroblast growth factor 2 (FGF2; 10 ng/mL) and heparin (2 μg/mL) were added to 100 mL of serum-free media (SFM). Ovomucoid trypsin inhibitor (1 mg/mL) was dissolved in warm SFM and sterile filtered ([…]).
A dissecting microscope, cold light source, and sterile surgical instruments were set up inside of a sterile biological safety cabinet (BSC). Mammalian eyes were enucleated and placed in a petri dish containing cold, sterile aCSF. Under the dissecting microscope, hair, connective tissue, and the dorsal and ventral oblique muscles were cleared from the scleral/corneal border with two sets of forceps. Next, curved or angled micro-dissecting scissors were used to cleave any remaining extraocular muscle tissue, the optic nerve, and cut the eyeball into symmetrical halves; beginning and finishing the cut from the hole left by the optic nerve. Using two sets of forceps to grasp the cornea, the two eye halves were peeled apart. The lens, optic nerve, and vitreous were separated from the eye shells and the eye shells were transferred into a new petri dish (also containing cold, sterile aCSF). To isolate the ciliary epithelium (CE), eye shells were oriented with the cornea on the right and retinal pigmented epithelium (RPE) on the left. A pair of straight forceps were used to pin down the eye shell on the RPE side while a scalpel blade was inserted between the CE and the iris, using pressure to slice the iris/cornea side off from the rest of the shell. Next, the scalpel was run along the border between the CE and the RPE to obtain the CE isolated as a thin strip of tissue. The CE strips were then transferred to a 35 mm dish containing 2 mL of dispase solution (Sigma; T1005) and incubated for 10 minutes at 37° C. Next, the strips were transferred from dispase into a 35 mm dish containing 2 mL of sterile filtered kynurenic acid, trypsin and hyaluronidase solution and incubated at 37° C. for 10 minutes. After incubation, the dish was returned to the dissecting scope, and the CE strips were pinned down with straight, non-serrated forceps, while non-serrated curved forceps were used to scrape the CE off from the underlying sclera. The bare scleral strips were then discarded, such that only the CE cells remained in the enzyme solution. Using a fire-polished, cotton-plugged glass pipette, the cells and enzyme solution were transferred to a 15 mL tube and triturated approximately 45 times to break apart the tissue. The 15 mL tube/cell suspension was centrifuged for 5 minutes at 1500 rpm. The supernatant was gently aspirated from the resulting pellet using a fire-polished, cotton-plugged glass pipette and 2 mL of trypsin inhibitor solution was added to the pellet. Using a small borehole, fire-polished, cotton-plugged glass pipette, the sample was triturated approximately 45 times until it was a single-cell suspension. The 15 mL tube/cell suspension was centrifuged for 5 minutes at 1500 rpm. The supernatant was gently aspirated from the resulting pellet and 1-2 mL of SFM with FGF2 and heparin (plating media) was added. The cells and media were mixed to ensure a uniform cell suspension and a 10 uL sample was taken and cell density was determined. The cells were then seeded and cultured at 10c/μL in culture-treated plates or flasks. After one week, roughly 1 in 500 cells proliferated to form free-floating, clonal spheres greater than 80 μm in diameter.
Human-derived spheres were passaged using the kynurenic acid, trypsin, hyaluronidase enzyme solution with the addition of collagenase I (0.5 mg/mL), collagenase II (0.5 mg/mL) and elastase (0.1 mg/mL). Mouse-derived spheres were passaged using hyaluronidase (0.67 mg/mL), collagenase I (0.5 mg/mL), and collagenase II (0.5 mg/mL) dissolved in Accustase solution (Sigma; SCR005). […]

Compound	Cell proliferation within one week [%]
O=C(Nc1ccc(-c2cnco2)c(Cl)c1)C1COc2ccccc2C1 (racemic) [Compound 1, N-(3-chloro-4-(1,3-oxazol-5-yl)phenyl) chromane-3-carboxamide]	179
O=C(Nc1ccc(-c2cnco2)c(Cl)c1)C1CCOc2ccccc21 (racemic) [Compound 2, N-(3-chloro-4-(oxazol-5-yl)phenyl) chromane-4-carboxamide]	128
COc1ccc2c(c1)CC(C(=O)Nc1ccc(-c3cnco3)c(Cl)c1)CO2 (racemic) [Compound 3, N-(3-chloro-4-(oxazol-5-yl)phenyl)-6-methoxychromane-3-carboxamide]	138
O=C(Nc1ccc(-c2cnco2)c(F)c1)C1CCOc2ccccc21 (racemic) [Compound 4, N-(3-fluoro-4-(oxazol-5-yl)phenyl)chromane-4-carboxamide]	106
O=C(Nc1ccc(-c2cnco2)c(F)c1)C1COc2ccccc2C1 (racemic) [Compound 5, N-(3-fluoro-4-(oxazol-5-yl)phenyl)chromane-3-carboxamide]	133
O=C(Nc1ccc(-c2cnco2)c(Cl)c1)C1COc2ccccc2O1 (racemic) [Compound 6, N-(3-chloro-4-(oxazol-5-yl)phenyl)-2,3-dihydrobenzo[b][1,4]dioxine-2-carboxamide]	120
COc1ccc2c(c1)OC(C(=O)Nc1ccc(-c3cnco3)c(F)c1)CO2 (racemic) [Compound 7, N-(3-fluoro-4-(oxazol-5-yl)phenyl)-7-methoxy-2,3-dihydrobenzo[b][1,4]dioxine-2-carboxamide]	123
COc1ccc2c(c1)OC(C(=O)Nc1ccc(-c3cnco3)c(Cl)c1)CO2 (racemic) [Compound 8, N-(3-chloro-4-(oxazol-5-yl)phenyl)-7-methoxy-2,3-dihydrobenzo[b][1,4]dioxine-2-carboxamide]	117
O=C(Nc1ccc(-c2cnco2)c(F)c1)C1COc2ccccc2O1 (racemic) [Compound 9, N-(3-fluoro-4-(oxazol-5-yl)phenyl)-2,3-dihydrobenzo[b][1,4]dioxine-2-carboxamide]	118
COc1ccc2c(c1)CC(C(=O)Nc1ccc(-c3cnco3)c(F)c1)CO2 (racemic) [Compound 10, N-(3-fluoro-4-(oxazol-5-yl)phenyl)-6-methoxychromane-3-carboxamide]	121
COc1cc(NC(=O)C2CCOc3ccccc32)ccc1-c1cnco1 (racemic) [Compound 11, N-(3-methoxy-4-(oxazol-5-yl)phenyl) chromane-4-carboxamide]	140
COc1cc(NC(=O)C2COc3ccccc3C2)ccc1-c1cnco1 (racemic) [Compound 12, N-(3-methoxy-4-(oxazol-5-yl)phenyl) chromane-3-carboxamide]	230
COc1cc(NC(=O)C2COc3ccccc3O2)ccc1-c1cnco1 (racemic) [Compound 13, N-(3-methoxy-4-(oxazol-5-yl)phenyl)-2,3-dihydrobenzo[b][1,4]dioxine-2-carboxamide]	137
COc1ccc2c(c1)CC(C(=O)Nc1ccc(-c3cnco3)c(OC)c1)CO2 (racemic) [Compound 14, 6-methoxy-N-(3-methoxy-4-(oxazol-5-yl)phenyl)chromane-3-carboxamide]	196
COc1cc(NC(=O)C2CCOc3ccccc32)ccc1-c1ccncc1 (racemic) [Compound 15, N-(3-methoxy-4-(pyridin-4-yl)phenyl)chromane-4-carboxamide]	122
COc1ccc2c(c1)CC(C(=O)Nc1ccc(-c3ccncc3)c(OC)c1)CO2 (racemic) [Compound 16, 6-methoxy-N-(3-methoxy-4-(pyridin-4-yl)phenyl)chromane-3-carboxamide]	143
COc1cc(NC(=O)C2COc3ccccc3C2)ccc1-c1ccncc1 (racemic) [Compound 17, N-(3-methoxy-4-(pyridin-4-yl)phenyl)chromane-3-carboxamide]	114
COc1ccc2c(c1)OC(C(=O)Nc1ccc(-c3ccncc3)c(OC)c1)CO2 (racemic) [Compound 18, 7-methoxy-N-(3-methoxy-4-(pyridin-4-yl)phenyl)-2,3-dihydrobenzo[b][1,4]dioxine-2-carboxamide]	104
COc1cc(NC(=O)C2COc3ccccc3O2)ccc1-c1ccncc1 (racemic) [Compound 19, N-(3-methoxy-4-(pyridin-4-yl)phenyl)-2,3-dihydrobenzo[b][1,4]dioxine-2-carboxamide]	110
COc1ccc2c(c1)OC(C(=O)Nc1ccc(-c3cnco3)c(OC)c1)CO2 (racemic) [Compound 20, 7-methoxy-N-(3-methoxy-4-(oxazol-5-yl)phenyl)-2,3-dihydrobenzo[b][1,4]dioxine-2-carboxamide]	113
Cc1cc(NC(=O)C2COc3ccccc3C2)ccc1-c1cnco1 (racemic) [Compound 22, N-(3-methyl-4-(oxazol-5-yl)phenyl) chromane-3-carboxamide]	120
Cc1cc(-c2cnco2)ccc1NC(=O)C1COc2ccccc2C1 (racemic) [Compound 23, N-(2-methyl-4-(oxazol-5-yl)phenyl) chroman-3-carboxamide]	116
O=C(Nc1ccc(-c2cnco2)cc1OC(F)F)C1COc2ccccc2C1 (racemic) [Compound 24, N-(2-(difluoromethoxy)-4-(oxazol-5-yl)phenyl)chroman-3-carboxamide]	126
O=C(Nc1ccc(-n2cncn2)c(C(F)(F)F)c1)C1COc2ccccc2C1 (racemic) [Compound 28, N-(4-(1H-1,2,4-triazol-1-yl)-3-(trifluoromethyl)phenyl)chromane-3-carboxamide]	118
O=C(Nc1ccc(-c2nnco2)c(F)c1)C1COc2ccccc2C1 (racemic) [Compound 29, N-(3-fluoro-4-(1,3,4-oxadiazol-2-yl)phenyl)chromane-3-carboxamide]	108
Cc1ncc(-c2ccc(NC(=O)C3COc4ccccc4C3)cc2Cl)o1 (racemic) [Compound 30, N-(3-chloro-4-(2-methyloxazol-5-yl)phenyl)chromane-3-carboxamide]	119
O=C(Nc1ccc(-c2cnco2)c(Cl)c1)C1Cc2ccccc2O1 (racemic) [Compound 31, N-(3-chloro-4-(oxazol-5-yl)phenyl)-2,3-dihydrobenzofuran-2-carboxamide]	137
O=C(Nc1ccc(-c2cnco2)c(Cl)c1)C1CCOc2ccccc21 (racemic) [Compound 32, N-(3-chloro-4-(oxazol-5-yl)phenyl)chromane-4-carboxamide]	113
O=C(Nc1ccc(-c2cnco2)c(Cl)c1)C1CCc2ccccc21 (racemic) [Compound 33, N-(3-chloro-4-(oxazol-5-yl)phenyl)-2,3-dihydro-1H-indene-1-carboxamide]	116

same assay, conditions: within one week, over control

Compound	increase of cell proliferation [%]
O=C(Nc1ccc(-c2cnco2)c(Cl)c1)C1COc2ccccc2C1 (racemic) [Compound 1, N-(3-chloro-4-(1,3-oxazol-5-yl)phenyl) chromane-3-carboxamide]	79
COc1cc(NC(=O)C2CCOc3ccccc32)ccc1-c1cnco1 (racemic) [Compound 11, N-(3-methoxy-4-(oxazol-5-yl)phenyl) chromane-4-carboxamide]	40
COc1cc(NC(=O)C2COc3ccccc3C2)ccc1-c1cnco1 (racemic) [Compound 12, N-(3-methoxy-4-(oxazol-5-yl)phenyl) chromane-3-carboxamide]	130
COc1ccc2c(c1)CC(C(=O)Nc1ccc(-c3cnco3)c(OC)c1)CO2 (racemic) [Compound 14, 6-methoxy-N-(3-methoxy-4-(oxazol-5-yl)phenyl)chromane-3-carboxamide]	96
COc1ccc2c(c1)CC(C(=O)Nc1ccc(-c3ccncc3)c(OC)c1)CO2 (racemic) [Compound 16, 6-methoxy-N-(3-methoxy-4-(pyridin-4-yl)phenyl)chromane-3-carboxamide]	43
